Experimental data: patent US7064124B2, “NF-κB inhibitor containing substituted benzoic acid derivative as active ingredient” (Daiichi Suntory Pharma Co., Ltd., priority 2001, dated 2006)
Structures can show the parent of a compound that is named as a salt. Where two headings read alike, the source gives them in different places.

Tested on: NF-κB
Experiment: NF-κB luciferase reporter assay in A549/NF-κBLuc cells stimulated with IL-1β
Type: cell-based, human
Conditions: compound added 1 hour before IL-1β, then 3 hours incubation, luciferase activity, read-out: NF-κB Inhibitory Activity (IC50)
Experimental: Effect on Human Lung Cancer-Derived Cell A549 (A549/NF-κBluc) Containing Stably Introduced Luciferase Plasmid (pNFκB-Luc, Stratagene. U.S.A.) Regulated by NF-κB Binding Sequence
Using Lipofectamine (Lifetech Oriental, Tokyo), pNFκB-Luc and pSV2neo (Clontech, U.S.A.) were co-transfected into the A549 cell (ATCC CCL185) and G418 sulfate (1 mg/ml, Lifetech Oriental) was added to the culture medium to select cells containing stably introduced pNFκB-Luc A549/NF-κBLuc.
The compound obtained in Examples each was added to A549/NF-κBLuc and one hour after that, IL-1β capable of activating NF-κB was added. The incubation was further continued for 3 hours.
NF-κB Inhibitory Activity (IC50) of Substituted Benzoic Acid Derivitives: […]

[1] = Homo sapiens, A549, A549/NF-κBLuc cells

| SMILES | IC50 [1] | IC50 (A549/NF-κBLuc cells) |
| --- | --- | --- |
| COC1=C(OC)C(=O)C(Cc2ccc(O)c(C(=O)Nc3ccc(Cl)cc3)c2)=C(C)C1=O [Example 117] | 20 µM | – |
| COC1=C(OC)C(=O)C(Cc2ccc(O)c(C(=O)N(C)c3ccc(OC)cc3)c2)=C(C)C1=O [Example 164, N-Methyl-[5-(5,6-dimethoxy-3-methyl-1,4-benzoquinon-2-yl)methyl-2-hydroxybenzoyl]-4-methoxyaniline] | 20 µg/mL | – |
| COC1=C(OC)C(=O)C(Cc2ccc(OC(C)=O)c(C(=O)Nc3ccc(Cl)cc3)c2)=C(C)C1=O [Example 109, N-[5-(5,6-Dimethoxy-3-methyl-1,4-benzoquinon-2-yl)methyl-2-acetoxybenzoyl]-4-chloroaniline] | 46 µM | – |
| COC1=C(OC)C(=O)C(Cc2ccc(OC(C)=O)c(C(=O)Nc3cc(OC)c(OC)c(OC)c3)c2)=C(C)C1=O [Example 106, N-[5-(5,6-Dimethoxy-3-methyl-1,4-benzoquinon-2-yl)methyl-2-acetoxybenzoyl]-3,4,5-trimethoxyaniline] | 70 µM | – |
| COC1=C(OC)C(=O)C(Cc2cccc(OCc3ccccc3)c2C(=O)Nc2ccc(OC)cc2)=C(C)C1=O [Example 60, N-[6-(5,6-Dimethoxy-3-methyl-1,4-benzoquinon-2-yl)methyl-2-benzyloxybenzoyl]-4-methoxyaniline] | 19 µM | – |
| COC1=C(OC)C(=O)C(Cc2ccc(O)c(C(=O)Nc3ccc(C(F)(F)F)cc3)c2)=C(C)C1=O [Example 120, N-[5-(5,6-Dimethoxy-3-methyl-1,4-benzoquinon-2-yl)methyl-2-hydroxybenzoyl]-4-trifluoromethylaniline] | 1.7 µM | – |
| COC1=C(OC)C(=O)C(Cc2ccc(OC(C)=O)c(C(=O)Nc3ccnc(Cl)c3)c2)=C(C)C1=O [Example 226, N-(2-Chloropyridin-4-yl)-5-(5,6-dimethoxy-3-methyl-1,4-benzoquinon-2-yl)methyl-2-acetoxybenzamide] | 19 µg/mL | – |
| COC1=C(OC)C(=O)C(Cc2ccc(Oc3ccccc3)c(C(=O)N3CCCCC3C)c2)=C(C)C1=O (stereo not shown) [Example 125, N-[5-(5,6-Dimethoxy-3-methyl-1,4-benzoquinon-2-yl)methyl-2-phenoxybenzoyl]-2-methylpiperidine] | 19 µM | – |
| COC1=C(OC)C(=O)C(Cc2ccc(Oc3cccc(OC)c3)c(C(=O)N3CCCCC3)c2)=C(C)C1=O [Example 89, N-[5-(5,6-Dimethoxy-3-methyl-1,4-benzoquinon-2-yl)methyl-2-(3-methoxyphenoxy)benzoyl]piperidine] | 45 µM | – |
| COC1=C(OC)C(=O)C(Cc2ccc(OC(C)=O)c(C(=O)Nc3ccc(N4CCOCC4)nc3)c2)=C(C)C1=O [Example 224, N-(6-Morpholinopyridin-3-yl)-5-(5,6-dimethoxy-3-methyl-1,4-benzoquinon-2-yl)methyl-2-acetoxybenzamide] | 24 µg/mL | – |
| COC1=C(OC)C(=O)C(Cc2ccc(OC(C)=O)c(C(=O)Nc3ccc(OC)cc3)c2)=C(C)C1=O [Example 70, N-[5-(5,6-Dimethoxy-3-methyl-1,4-benzoquinon-2-yl)methyl-2-acetoxybenzoyl]-4-methoxyaniline] | 15 µM | – |
| COC1=C(OC)C(=O)C(Cc2ccc(OCc3ccncc3)c(C(=O)N3CCCCC3)c2)=C(C)C1=O [Example 95 (pTsOH)] | – | 51 µM |
| COC1=C(OC)C(=O)C(Cc2ccc(O)c(C(=O)Nc3cc(C(F)(F)F)cc(C(F)(F)F)c3)c2)=C(C)C1=O [Example 121, N-[5-(5,6-Dimethoxy-3-methyl-1,4-benzoquinon-2-yl)methyl-2-hydroxybenzoyl]-3,5-bistrifluoromethylaniline] | 64 µM | – |
| COC1=C(OC)C(=O)C(Cc2ccc(OCc3ccccc3)c(C(=O)N3CCCCC3)c2)=C(C)C1=O [Example 61, N-[5-(5,6-Dimethoxy-3-methyl-1,4-benzoquinon-2-yl)methyl-2-benzyloxybenzoyl]piperidine] | 31 µM | – |
| COC1=C(OC)C(=O)C(Cc2ccc(O)c(C(=O)Nc3ccc(OC)cc3)c2)=C(C)C1=O [Example 76, N-[5-(5,6-Dimethoxy-3-methyl-1,4-benzoquinon-2-yl)methyl-2-hydroxybenzoyl]-4-methoxyaniline] | 7 µM | – |
| COC(=O)c1cc(CC2=C(C)C(=O)C(OC)=C(OC)C2=O)ccc1OCC(=O)OC(C)(C)C [Example 130, Methyl 5-(5,6-Dimethoxy-3-methyl-1,4-benzoquinon-2-yl)methyl-2-(tert-butoxycarbonylmethyloxy)benzoate] | 59 µM | – |
| COC1=C(OC)C(=O)C(Cc2cccc(C(=O)Nc3cccnc3)c2OC(C)=O)=C(C)C1=O [Example 206, N-(Pyridin-3-yl)-3-(5,6-dimethoxy-3-methyl-1,4-benzoquinon-2-yl)methyl-2-acetoxybenzamide] | 87 µg/mL | – |

| SMILES | IC50 [1] | IC50 (A549/NF-κBLuc cells) |
| --- | --- | --- |
| COC1=C(OC)C(=O)C(Cc2ccc(O)c(C(=O)Nc3ccc(C(C)=O)cc3)c2)=C(C)C1=O [Example 116, N-[5-(5,6-Dimethoxy-3-methyl-1,4-benzoquinon-2-yl)methyl-2-hydroxybenzoyl]-4-acetylaniline] | 17 µM | – |
| COC1=C(OC)C(=O)C(Cc2ccc(OCc3ccncc3)c(C(=O)N3CCCCC3)c2)=C(C)C1=O [Example 95, N-[5-(5,6-Dimethoxy-3-methyl-1,4-benzoquinon-2-yl)methyl-2-(4-pyridylmethyloxy)benzoyl]piperidine] | 35 µM | – |
| COC1=C(OC)C(=O)C(Cc2ccc(OCc3cccnc3)c(C(=O)N3CCCCC3)c2)=C(C)C1=O [Example 92 (HCl)] | – | 46 µM |
| COC1=C(OC)C(=O)C(Cc2ccc(OC(C)=O)c(C(=O)Nc3cccnc3N3CCOCC3)c2)=C(C)C1=O [Example 222, N-(2-Morpholinopyridin-3-yl)-5-(5,6-dimethoxy-3-methyl-1,4-benzoquinon-2-yl)methyl-2-acetoxybenzamide] | 77 µg/mL | – |
| COC1=C(OC)C(=O)C(Cc2ccc(C(=O)N3CCCCC3)c(OCc3ccccc3)c2)=C(C)C1=O [Example 57, N-[4-(5,6-Dimethoxy-3-methyl-1,4-benzoquinon-2-yl)methyl-2-benzyloxybenzoyl]piperidine] | 29 µM | – |
| COC1=C(OC)C(=O)C(Cc2ccc(Oc3ccccc3)c(C(=O)N3CCCc4ccccc43)c2)=C(C)C1=O [Example 124, N-[5-(5,6-Dimethoxy-3-methyl-1,4-benzoquinon-2-yl)methyl-2-phenoxybenzoyl]-1,2,3,4-tetrahydroquinoline] | 46 µM | – |
| COC1=C(OC)C(=O)C(Cc2ccc(OC(C)C)c(C(=O)N3CCOCC3)c2)=C(C)C1=O [Example 84, N-[5-(5,6-Dimethoxy-3-methyl-1,4-benzoquinon-2-yl)methyl-2-isopropoxybenzoyl]morpholine] | 63 µM | – |
| COC1=C(OC)C(=O)C(Cc2cccc(C(=O)Nc3ccc(OC)cc3)c2OC(C)=O)=C(C)C1=O [Example 73, N-[3-(5,6-Dimethoxy-3-methyl-1,4-benzoquinon-2-yl)methyl-2-acetoxybenzoyl]-4-methoxyaniline] | 31 µM | – |
| COC1=C(OC)C(=O)C(Cc2ccc(OC(C)=O)c(C(=O)Nc3ccc(C(C)=O)cc3)c2)=C(C)C1=O [Example 108, N-[5-(5,6-Dimethoxy-3-methyl-1,4-benzoquinon-2-yl)methyl-2-acetoxybenzoyl]-4-acetylaniline] | 67 µM | – |
| COC1=C(OC)C(=O)C(Cc2ccc(OC)c(C(=O)N3CCCCC3)c2)=C(C)C1=O [Example 80, N-[5-(5,6-Dimethoxy-3-methyl-1,4-benzoquinon-2-yl)methyl-2-methoxybenzoyl]piperidine] | 82 µM | – |
| COC1=C(OC)C(=O)C(Cc2ccc(OCc3cccnc3)c(C(=O)Nc3cc(OC)c(OC)c(OC)c3)c2)=C(C)C1=O [Example 128, N-[5-(5,6-Dimethoxy-3-methyl-1,4-benzoquinon-2-yl)methyl-2-(3-pyridylmethyloxy)benzoyl]-3,4,5-trimethoxyaniline] | 19 µM | – |
| COC1=C(OC)C(=O)C(Cc2ccc(O)c(C(=O)Nc3ccc(OC)c(OC)c3)c2)=C(C)C1=O [Example 115, N-[5-(5,6-Dimethoxy-3-methyl-1,4-benzoquinon-2-yl)methyl-2-hydroxybenzoyl]-3,4-dimethoxyaniline] | 36 µM | – |
| COC1=C(OC)C(=O)C(Cc2ccc(OC(C)=O)c(C(=O)N(C)c3ccc(OC)cc3)c2)=C(C)C1=O [Example 163, N-Methyl-[5-(5,6-dimethoxy-3-methyl-1,4-benzoquinon-2-yl)methyl-2-acetoxybenzoyl]-4-methoxyaniline] | 30 µg/mL | – |
| COC1=C(OC)C(=O)C(Cc2ccc(OC(C)C)c(C(=O)Nc3ccc(OC)cc3)c2)=C(C)C1=O [Example 85, N-[5-(5,6-Dimethoxy-3-methyl-1,4-benzoquinon-2-yl)methyl-2-isopropoxybenzoyl]-4-methoxyaniline] | 65 µM | – |
| COC1=C(OC)C(=O)C(Cc2cccc(C(=O)N3CCCCC3)c2OCc2ccccc2)=C(C)C1=O [Example 64, N-[3-(5,6-Dimethoxy-3-methyl-1,4-benzoquinon-2-yl)methyl-2-benzyloxybenzoyl]piperidine] | 33 µM | – |
| COC1=C(OC)C(=O)C(Cc2ccc(Oc3ccccc3)c(C(=O)N3CCOCC3)c2)=C(C)C1=O [Example 87, N-[5-(5,6-Dimethoxy-3-methyl-1,4-benzoquinon-2-yl)methyl-2-phenoxybenzoyl]morpholine] | 19 µM | – |
| COC1=C(OC)C(=O)C(Cc2ccc(OC)c(C(=O)Nc3ccc(OC)cc3)c2)=C(C)C1=O [Example 82, N-[5-(5,6-Dimethoxy-3-methyl-1,4-benzoquinon-2-yl)methyl-2-methoxybenzoyl]-4-methoxyaniline] | 84 µM | – |
